Test results as given in patent US6767569B1, “Surface decontamination of cooked sausage and processed meat and poultry products” (priority 1999, dated 2004).
Where “and” joins values, the source holds several entries; their conditions need not be identical. Equal entries are not always repeated.

Columns and labels:
Listeria = assay: Further tests: peracetic acid sprayed over the frankfurters; format: cell-based, Listeria monocytogenes; conditions: 2000 ppm sprayed over the frankfurters for 30 seconds to one minute
[1] = Stability of peracetic acid solutions; format: physicochemical
Description: Peracetic acid solutions were prepared in deionized water as for Example 2 to nominal concentrations of 1000 and 2000 mg/L. Actual peracetic acid concentrations were measured at 0 and 30 minutes at around 25° C. and 50° C.

E. coli = format: cell-based; conditions: E. coli; 35 °C, 24 hrs
Description: (§1) Each strain was subcultured on tryptic soy agar (TSA, DIFCO, Detroit, Mich.) slants and stored at 4° C. Strains were individually transferred into 100 mL of sterile 2× BHI (DIFCO, Detroit, Mich.) and incubated at 35° C. for 24 hr. to reach ca. 10^9 colony forming units/mL (CFU/mL). Then, 25 mL of each strain of E. coli was transferred into a sterile bottle (mixture X), and 25 mL of each strain of each strain of Salmonella spp. was transferred into a sterile bottle (mixture Y). Mixtures X and Y were maintained separately throughout the test.
(§2) Serial dilutions were made using Butterfields' Phosphate Buffer (BPB, Sigma, St. Louis, Mo.) in 1 mL aliquots prior to inoculation. BPB was prepared as a stock solution by adding 34 g Of KH2PO4 to 500 mL of distilled water. The pH was adjusted to 7.2, and the solution was brought to a volume of 1 L. The BPB stock was autoclaved for 20 min. at 121° C. and 15 lbs. of pressure. […] For glacial acetic acid (U.S.P.-F.C.C., J. T. Baker, Phillipsburg, N.J.), starting concentrations and serial dilutions were 50%, 25%, 12.5%, 6.25%, 3.12%, 1.56%, 0.78%, 0.39%, and a control (no treatment, buffer and culture). […] For peracetic acid 35.0% (STERIS 20™, STERIS Corporation, Mentor, Ohio), starting concentrations and serial dilutions were 17.5%, 8.75%, 4.38%, 2.19%, 1.09%, 0.55%, 0.30%, 0.14%, 0.07%, 0.03%, and a control. For liquid smoke (Hickory Specialties, Brentwood, Tenn.) starting concentrations and serial dilutions were 50%, 25%, 12.5%, 6.25%, 3.12%, 1.56%, 0.78%, 0.39%, and a control. Dilutions were prepared with deionized water.
(§3) The test tubes were incubated at 35° C. for 24 hrs. and turbidity was evaluated using McFarland equivalence standards, to study the bacteriostatic properties of the diluted solutions. In addition, each dilution was plated to evaluate the bactericidal properties of, the diluted solutions. Using a 1 μL sterile loop, each concentration and control for either microorganism mixture was streaked on plate count agar (PCA, DIFCO, Detroit, Mich.). A selective agar was also used for each mixture, eosine methylene blue agar (EMB, DIFCO, Detroit, Mich.) for E. coli and xylose lysine decarboxylase agar (XLD, DIFCO, Detroit,Mich.) for Salmonella spp. All plates were incubated for 24 hrs. at 35° C. and were inspected for growth or no growth.

Salmonella spp. = format: cell-based; conditions: 35 °C, 24 hrs
Description: as §1, §2, §3

Listeria species = assay: Dip treatment of inoculated frankfurters, qualitative (enrichment) procedure with TECRA Listeria ELISA; format: cell-based, Listeria monocytogenes; set-up: key: POS: Positive indicates that at least one colony grew during the test; NEG: Negative indicated that no colonies grew
Description: Following air drying, one frank per treatment was placed in a sterile Stomacher bag and analyzed quantitatively for residual L. monocytogenes populations. The remaining two franks were retained in sterile Stomacher bags and used for qualitative analysis, if necessary (in the event no surviving cells were detected using quantitative procedures).
The plating techniques used were capable of detection down to 5 cfu/ml (1 colony/0.2 ml) for the spiral plating method and 0.5 cfu/ml for the spread plating method (1 colony/2 ml). In the event that no surviving L. monocytogenes cells were observed using direct plating procedures, two franks per treatment were evaluated using qualitative (enrichment) procedures. A 10 mL aliquot of the retained homogenate was placed added to 90 mL of UVM broth to achieve a 1:10 dilution. These samples were shaken by hand for 1 minute and incubated at 30° C. for 24 h. Following this primary enrichment, 0.1 mL was transferred to 10 mL of Fraser broth and incubated at 30° C. for 24 h. This secondary enrichment was then used to perform an ELISA screening procedure (TECRA Listeria species assay). Results of this qualitative analysis were used to indicate whether the sample was “positive” or “negative” for the presence of Listeria species.
The target inoculation level before treatment was 1,000 CFU/frank. It can be seen that a 2 second treatment is sufficient to remove most, but not all Listeria from the franks. A 10 second treatment reduces the Listeria count below the detection limit of the quantitative assessment procedures, although a few colonies were detected in the qualitative procedure. […] Therefore, the true population of any samples with a population of <90 CFU/frank could not be specifically determined.

[2] = tested on: Listeria monocytogenes ATCC. 43256; assay: D-values for Listeria monocytogenes in peracetic acid solutions (suspension test); format: cell-based
Description: Peracetic acid solutions of 500, 1000, and 2000 mg/L (ppm) were prepared as for Example 1, using deionized water. To 100 mL samples of the solutions, 1.7×10^6 Listeria monocytogenes ATCC. 43256 per mL were added and mixed. The samples were maintained at a preselected temperature ([…], ˜15° C., or ˜22° C.). At 10, 20, 30, 40, and 50 seconds contact time, 1 mL was removed, neutralized, and the Listeria monocytogenes organisms remaining were determined by plating on TSA and incubation. […] D-values (time required to kill one log of the test microorganism—in this case, a reduction in microorganisms from 1.7×10^6 initially to 1.7×10^5) were determined, as shown in TABLE 4. D-values below the detection limit of the test are shown as <2 seconds.

[3] = nominal 1000 mg/L, 26-29 °C, pH 2.7
[4] = nominal 1000 mg/L, 50 °C, pH 2.7
[5] = nominal 2000 mg/L, 26-29 °C, pH 2.6
[6] = nominal 2000 mg/L, 50 °C, pH 2.6

With `CC(=O)OO` [peracetic acid] the kill level (Listeria) was “complete kill”, the “stability of the solutions over the 30 minute period” value ([1]; 1000 and 2000 mg/L nominal, around 25 °C and 50 °C) was “relatively stable” and the “Concentration at 0 mins” value [1, 3] was 1347 µg/mL. The “Concentration at 30 mins” value [1, 3] was 1355 µg/mL, the “Concentration at 0 mins” value [1, 4] was 1310 µg/mL and the “Concentration at 30 mins” value [1, 4] was 1284 µg/mL. For the same compound, the “Concentration at 0 mins” value [1, 5] was 2016 µg/mL, the “Concentration at 30 mins” value [1, 5] was 2017 µg/mL and the “Concentration at 0 mins” value [1, 6] was 1937 µg/mL. The “Concentration at 30 mins” value [1, 6] was 1959 µg/mL, the “MIC (%)” value (E. coli) was 0.137% and 0.14% and the “MIC (%)” value (Salmonella spp.) was 0.137% and 0.14%. For the same compound, the “POS/NEG (qualitative analysis after treatment)” value (shortened to “POS/NEG”) (Listeria species; PAA 100 ppm (actual 114 ppm), 2 sec exposure, 2 sec rinse) was “POS”, the “POS/NEG” value (Listeria species; PAA 100 ppm (actual 114 ppm), 10 sec exposure, 10 sec rinse) was “POS” and the “POS/NEG” value (Listeria species; PAA 500 ppm (actual 572 ppm), 2 sec exposure, 2 sec rinse) was “POS”. The “POS/NEG” value (Listeria species; PAA 500 ppm (actual 572 ppm), 10 sec exposure, 10 sec rinse) was “POS and NEG”, the “POS/NEG” value (Listeria species; PAA 1000 ppm (actual 1146 ppm), 2 sec exposure, 2 sec rinse) was “NEG and POS” and the “POS/NEG” value (Listeria species; PAA 1000 ppm (actual 1146 ppm), 10 sec exposure, 10 sec rinse) was “NEG and POS”. For the same compound, the “D-value” ([2]; 500 mg/L, 8.3-8.5 °C, pH 3.7-3.7) was 2 s, the “D-value” ([2]; 500 mg/L, 14.7-15.0 °C, pH 3.4-3.6) was less than 2 s and the “D-value” ([2]; 500 mg/L, 22.7-22.8 °C, pH 3.4-3.6) was less than 2 s. For the same compound, the “D-value” ([2]; 1000 mg/L, 8.1-8.1 °C, pH 3.2-3.4) was less than 2 s, the “D-value” ([2]; 1000 mg/L, 15.0-15.2 °C, pH 3.2-3.4) was less than 2 s and the “D-value” ([2]; 2000 mg/L, 8.1-8.4 °C, pH 3.0-3.1) was less than 2 s. The “D-value” ([2]; 2000 mg/L, temperature range printed 3.0-3.1 °C, pH 3.0-3.1) was less than 2 s and the “Listeria monocytogenes organisms remaining” value ([2]; 500, 1000, 2000 mg/L, 10-50 seconds contact, except the sample at 500 mg/L, ~8 °C, 10 seconds) was “destroyed in all cases”.
